Here are results for 26 molecules from patent publication US8217048B2, “Inhibitors of serine proteases, particularly HCV NS3-NS4A protease” (Vertex Pharmaceuticals Incorporated, priority 2003, dated 2012).

One test deals with T1, HCV NS3-NS4A protease (Hepatitis C virus genotype 1a, UniProt P27958).
T1 construct: The buffer, KK4A, DTT, and tNS3 were combined
As to the kind of experiment: HCV Ki Assay (enzyme, Example 5). The test is classed as biochemical. Conditions: Ki values, tested according to Example 5 (enzyme); 5AB substrate, tNS3 with KK4A. As for the experimental part: HPLC Microbore Method for Separation of 5AB Substrate and Products
NH2-Glu-Asp-Val-Val-(alpha)Abu-Cys-Ser-Met-Ser-Tyr-COOH
A stock solution of 20 mM 5AB (or concentration of your choice) was made in DMSO w/0.2M DTT. This was stored in aliquots at −20 C.
Buffer: 50 mM HEPES, pH 7.8; 20% glycerol; 100 mM NaCl
Total assay volume was 100 μL
The buffer, KK4A, DTT, and tNS3 were combined; distributed 78 μL each into wells of 96 well plate. This was incubated at 30 C for ˜5-10 min.
2.5 μL of appropriate concentration of test compound was dissolved in DMSO (DMSO only for control) and added to each well. This was incubated at room temperature for 15 min.
Initiated reaction by addition of 20 μL of 250 μM 5AB substrate (25 μM concentration is equivalent or slightly lower than the Km for 5AB).
Incubated for 20 min at 30 C.
Terminated reaction by addition of 25 μL of 10% TFA
Transferred 120 μL aliquots to HPLC vials
Separated SMSY product from substrate and KK4A by the following method:
Microbore Separation Method:
Instrumentation: Agilent 1100
Column thermostated chamber G1316A
Diode array detector G1315A
Solvent A=HPLC grade water+0.1% TFA
Solvent B=HPLC grade acetonitrile+0.1% TFA
Stop time: 17 min Post-run time: 10 min.

Test [1] has as its system Cells containing hepatitis C virus (HCV) replicon. In words: HCV Replicon Cell Assay (Example 4). The test is classed as cell-based. Conditions: 48 h, tested according to Example 4 (cell), 50% inhibition of HCV RNA level, 48-hour incubation. On the procedure: HCV Replicon Cell Assay Protocol
Cells containing hepatitis C virus (HCV) replicon were maintained in DMEM containing 10% fetal bovine serum (FBS), 0.25 mg per ml of G418, with appropriate supplements (media A).
On day 1, replicon cell monolayer was treated with a trypsin:EDTA mixture, removed, and then media A was diluted into a final concentration of 100,000 cells per ml wit. 10,000 cells in 100 ul were plated into each well of a 96-well tissue culture plate, and cultured overnight in a tissue culture incubator at 37° C.
On day 2, compounds (in 100% DMSO) were serially diluted into DMEM containing 2% FBS, 0.5% DMSO, with appropriate supplements (media B). The final concentration of DMSO was maintained at 0.5% throughout the dilution series.
Media on the replicon cell monolayer was removed, and then media B containing various concentrations of compounds was added. Media B without any compound was added to other wells as no compound controls.
Cells were incubated with compound or 0.5% DMSO in media B for 48 hours in a tissue culture incubator at 37° C. At the end of the 48-hour incubation, the media was removed, and the replicon cell monolayer was washed once with PBS and stored at −80° C. prior to RNA extraction.
Culture plates with treated replicon cell monolayers were thawed, and a fixed amount of another RNA virus, such as Bovine Viral Diarrhea Virus (BVDV) was added to cells in each well, RNA extraction reagents (such as reagents from RNeasy kits) were added to the cells immediately to avoid degradation of RNA. Total RNA was extracted according the instruction of manufacturer with modification to improve extraction efficiency and consistency. Finally, total cellular RNA, including HCV replicon RNA, was eluted and stored at −80° C. until further processing.
A Taqman real-time RT-PCR quantification assay was set up with two sets of specific primers and probe. One was for HCV and the other was for BVDV. Total RNA extractants from treated HCV replicon cells was added to the PCR reactions for quantification of both HCV and BVDV RNA in the same PCR well. Experimental failure was flagged and rejected based on the level of BVDV RNA in each well. The level of HCV RNA in each well was calculated according to a standard curve run in the same PCR plate. The percentage of inhibition or decrease of HCV RNA level due to compound treatment was calculated using the DMSO or no compound control as 0% of inhibition. The IC50 (concentration at which 50% inhibition of HCV RNA level is observed) was calculated from the titration curve of any given compound.
On the technique in general: In antiviral work, replicon cells carry a viral genome segment that copies itself.

T1 sequence (P27958 1658-1711): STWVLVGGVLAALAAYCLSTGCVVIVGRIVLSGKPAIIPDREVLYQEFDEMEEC
T1 sequence (P27958 1027-1208): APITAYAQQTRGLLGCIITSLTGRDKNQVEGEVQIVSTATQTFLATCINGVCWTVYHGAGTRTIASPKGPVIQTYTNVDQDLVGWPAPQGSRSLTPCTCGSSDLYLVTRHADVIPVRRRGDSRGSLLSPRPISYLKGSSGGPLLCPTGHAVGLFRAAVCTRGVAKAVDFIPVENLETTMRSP

By Ki is commonly meant the dissociation constant of the complex between target and ligand, obtained from inhibition or displacement. The term IC50 denotes the midpoint of a concentration-inhibition curve. High values mean a need for much substance, low ones inhibition by little substance. The molecule `CCC[C@H](NC(=O)[C@@H]1C[C@@H](Oc2ccc(OC(F)(F)F)cc2)CN1C(=O)[C@@H](NC(=O)[C@@H](NC(=O)c1cnccn1)C1CCCCC1)C(C)(C)C)C(=O)C(=O)NC1CC1` [Compound 14] came in with a Ki on HCV NS3-NS4A protease of 100 to 300 nM. This molecule had an IC50 in test [1] below 500 nM.
`CCC[C@H](NC(=O)[C@@H]1C[C@@H](Oc2cccc(-c3ccccc3)c2)CN1C(=O)[C@@H](NC(=O)[C@@H](NC(=O)c1cnccn1)C1CCCCC1)C(C)(C)C)C(=O)C(=O)NC1CC1` [Compound 15] displayed a Ki on HCV NS3-NS4A protease below 100 nM. Also, the half-maximal inhibitory concentration (IC50) in test [1] is below 500 nM.
At HCV NS3-NS4A protease, `CCC[C@H](NC(=O)[C@@H]1C[C@@H](Oc2cccc(OC(F)(F)F)c2)CN1C(=O)[C@@H](NC(=O)[C@@H](NC(=O)c1cnccn1)C1CCCCC1)C(C)(C)C)C(=O)C(=O)NC1CC1` [Compound 16] registered a Ki of 100 to 300 nM. Further, in test [1], the concentration for half-maximal inhibition (IC50) is 500 to 1000 nM.
Taken in the same sequence, the figures for `CCC[C@H](NC(=O)[C@@H]1C[C@@H](Oc2cccc(F)c2)CN1C(=O)[C@@H](NC(=O)[C@@H](NC(=O)c1cnccn1)C1CCCCC1)C(C)(C)C)C(=O)C(=O)NC1CC1` [Compound 18] were 100 to 300 nM and below 500 nM.
As for `CCC[C@H](NC(=O)[C@@H]1C[C@@H](Oc2ccc(-c3ccccc3)cc2)CN1C(=O)[C@@H](NC(=O)[C@@H](NC(=O)c1cnccn1)C1CCCCC1)C(C)(C)C)C(=O)C(=O)NC1CC1` [Compound 19], the inhibitory constant (Ki) on HCV NS3-NS4A protease was below 100 nM. Also, the IC50 in test [1] is below 500 nM.
Taken in the same sequence, the figures for `CCC[C@H](NC(=O)[C@@H]1C[C@@H](Oc2ccccc2Cl)CN1C(=O)[C@@H](NC(=O)[C@@H](NC(=O)c1cnccn1)C1CCCCC1)C(C)(C)C)C(=O)C(=O)NC1CC1` [Compound 20] were below 100 nM and 500 to 1000 nM.
Taken in the same sequence, the figures for `CCC[C@H](NC(=O)[C@@H]1C[C@@H](Oc2cccc(C(F)(F)F)c2)CN1C(=O)[C@@H](NC(=O)[C@@H](NC(=O)c1cnccn1)C1CCCCC1)C(C)(C)C)C(=O)C(=O)NC1CC1` [Compound 22] were 100 to 300 nM and below 500 nM.
For `CCC[C@H](NC(=O)[C@@H]1C[C@@H](Oc2cc(OC)cc(OC)c2)CN1C(=O)[C@@H](NC(=O)[C@@H](NC(=O)c1cnccn1)C1CCCCC1)C(C)(C)C)C(=O)C(=O)NC1CC1` [Compound 24], in that order: below 100 nM and below 500 nM.
`CCC[C@H](NC(=O)[C@@H]1C[C@@H](Oc2ccc([N+](=O)[O-])cn2)CN1C(=O)[C@@H](NC(=O)[C@@H](NC(=O)c1cnccn1)C1CCCCC1)C(C)(C)C)C(=O)C(=O)NC1CC1` [Compound 26] showed a Ki on HCV NS3-NS4A protease of 100 to 300 nM. In test [1], this molecule yielded an IC50 below 500 nM.
Taken in the same sequence, the figures for `CCCC(NC(=O)[C@@H]1C[C@@H](Oc2ccccc2)CN1C(=O)[C@@H](NC(=O)[C@@H](NC(=O)c1cnccn1)C1CCCCC1)C(C)(C)C)C(=O)C(=O)NC1CC1` (stereo partly shown) [Compound 34] were 100 to 300 nM and below 500 nM.
Taken in the same sequence, the figures for `CCC[C@H](NC(=O)[C@@H]1C[C@@H](Oc2ccccc2)CN1C(=O)[C@@H](NC(=O)[C@@H](NC(=O)c1cnccn1)C1CCCCC1)C(C)(C)C)C(=O)C(=O)NC1CC1` [Compound 35] were below 100 nM and below 500 nM.
Taken in the same sequence, the figures for `CCC[C@H](NC(=O)[C@@H]1C[C@@H](Oc2cccc3ccccc23)CN1C(=O)[C@@H](NC(=O)[C@@H](NC(=O)c1cnccn1)C1CCCCC1)C(C)(C)C)C(=O)C(=O)NC1CC1` [Compound 36] were below 100 nM and below 500 nM.
`CCC[C@H](NC(=O)[C@@H]1C[C@@H](Oc2ccc(OC)c3ccccc23)CN1C(=O)[C@@H](NC(=O)[C@@H](NC(=O)c1cnccn1)C1CCCCC1)C(C)(C)C)C(=O)C(=O)NC1CC1` [Compound 38] showed a Ki on HCV NS3-NS4A protease below 100 nM. This molecule yielded a 50% inhibitory concentration (IC50) in test [1] below 500 nM.
Taken in the same sequence, the figures for `CCC[C@H](NC(=O)[C@@H]1C[C@@H](Oc2ccnc3ccccc23)CN1C(=O)[C@@H](NC(=O)[C@@H](NC(=O)c1cnccn1)C1CCCCC1)C(C)(C)C)C(=O)C(=O)NC1CC1` [Compound 39] were below 100 nM and below 500 nM.
For `CCC[C@H](NC(=O)[C@@H]1C[C@@H](Oc2ccc(Cl)c3ccccc23)CN1C(=O)[C@@H](NC(=O)[C@@H](NC(=O)c1cnccn1)C1CCCCC1)C(C)(C)C)C(=O)C(=O)NC1CC1` [Compound 40], in that order: below 100 nM and below 500 nM.
Regarding `CCC[C@H](NC(=O)[C@@H]1C[C@@H](Oc2ccnc3cc(OC)ccc23)CN1C(=O)[C@@H](NC(=O)[C@@H](NC(=O)c1cnccn1)C1CCCCC1)C(C)(C)C)C(=O)C(=O)NC1CC1` [Compound 41], the Ki at HCV NS3-NS4A protease was below 100 nM. In addition, in test [1], the 50% inhibitory concentration (IC50) is above 1000 nM.
Taken in the same sequence, the figures for `CCC[C@H](NC(=O)[C@@H]1C[C@@H](Oc2ncnc3ccccc23)CN1C(=O)[C@@H](NC(=O)[C@@H](NC(=O)c1cnccn1)C1CCCCC1)C(C)(C)C)C(=O)C(=O)NC1CC1` [Compound 42] were below 100 nM and below 500 nM.
For `CCC[C@H](NC(=O)[C@@H]1C[C@@H](Oc2ccc(F)cc2)CN1C(=O)[C@@H](NC(=O)[C@@H](NC(=O)c1cnccn1)C1CCCCC1)C(C)(C)C)C(=O)C(=O)NC1CC1` [Compound 43], in that order: below 100 nM and below 500 nM.
For `CCC[C@H](NC(=O)[C@@H]1C[C@@H](Oc2ccc([N+](=O)[O-])cc2)CN1C(=O)[C@@H](NC(=O)[C@@H](NC(=O)c1cnccn1)C1CCCCC1)C(C)(C)C)C(=O)C(=O)NC1CC1` [Compound 44], in that order: below 100 nM and below 500 nM.
In turn, `CCC[C@H](NC(=O)[C@@H]1C[C@@H](Oc2cccc(C(=O)OC)c2)CN1C(=O)[C@@H](NC(=O)[C@@H](NC(=O)c1cnccn1)C1CCCCC1)C(C)(C)C)C(=O)C(=O)NC1CC1` [Compound 45] had an inhibition constant Ki at HCV NS3-NS4A protease below 100 nM. The IC50 in test [1] was below 500 nM.
Molecule `CCC[C@H](NC(=O)[C@@H]1C[C@@H](Oc2cccc(C(=O)NC)c2)CN1C(=O)[C@@H](NC(=O)[C@@H](NC(=O)c1cnccn1)C1CCCCC1)C(C)(C)C)C(=O)C(=O)NC1CC1` [Compound 46] registered an inhibition constant (Ki) at HCV NS3-NS4A protease below 100 nM. Also, the IC50 in test [1] is below 500 nM.
In the case of `CCC[C@H](NC(=O)[C@@H]1C[C@@H](Oc2cccc(S(=O)(=O)NC)c2)CN1C(=O)[C@@H](NC(=O)[C@@H](NC(=O)c1cnccn1)C1CCCCC1)C(C)(C)C)C(=O)C(=O)NC1CC1` [Compound 47], at HCV NS3-NS4A protease, the inhibition constant (Ki) is above 300 nM. This molecule displayed an IC50 in test [1] below 500 nM.
In the case of `CCC[C@H](NC(=O)[C@@H]1C[C@@H](Oc2ccc(S(=O)(=O)NC)cc2)CN1C(=O)[C@@H](NC(=O)[C@@H](NC(=O)c1cnccn1)C1CCCCC1)C(C)(C)C)C(=O)C(=O)NC1CC1` [Compound 48], at HCV NS3-NS4A protease, the inhibition constant (Ki) was 100 to 300 nM. The molecule also had an IC50 in test [1] below 500 nM.
Taken in the same sequence, the figures for `CCC[C@H](NC(=O)[C@@H]1C[C@@H](Oc2cccc(NC(C)=O)c2)CN1C(=O)[C@@H](NC(=O)[C@@H](NC(=O)c1cnccn1)C1CCCCC1)C(C)(C)C)C(=O)C(=O)NC1CC1` [Compound 49] were below 100 nM and above 1000 nM.
For `CCC[C@H](NC(=O)[C@@H]1C[C@@H](Oc2ccncn2)CN1C(=O)[C@@H](NC(=O)[C@@H](NC(=O)c1cnccn1)C1CCCCC1)C(C)(C)C)C(=O)C(=O)NC1CC1` [Compound 50], in that order: 100 to 300 nM and below 500 nM.
Taken in the same sequence, the figures for `CCC[C@H](NC(=O)[C@@H]1C[C@@H](Oc2ccc(NC(C)=O)cc2)CN1C(=O)[C@@H](NC(=O)[C@@H](NC(=O)c1cnccn1)C1CCCCC1)C(C)(C)C)C(=O)C(=O)NC1CC1` [Compound 51] were below 100 nM and above 1000 nM.
